Activity calls are given as the source filed them. No cut-off for these calls is given here.
Key:
Mus musculus [1] = organism: Mus musculus; assay: Compound was tested for life span of weight gain; format: functional
[2] = target: Dihydrofolate reductase (Lactobacillus casei) (UniProt P00381); assay: Inhibitory activity tested against dihydrofolate reductase from Lactobacillus casei; settings: Lacticaseibacillus casei
Mus musculus [3] = assay: In vivo life span increase in mice after 240 mg/kg (mg/kg)/day (q3d X 3) starting 24 hr of ip administration on; format: functional; settings: route intraperitoneal
Mus musculus [4] = assay: In vivo life span increase in mice after 60 mg/kg (mg/kg)/day (q3d X 3) starting 24 hr of ip administration on; No activity; format: functional, organism-based; design: dose 60 mg/kg; settings: at 60 mg/kg
Mus musculus [5] = organism: Mus musculus; assay: Growth inhibitory activity against L1210 mouse leukemia cells; format: functional
Mus musculus [6] = assay: Compound was tested for life span of weight loss in mice at 4 mg/kg/day; format: functional
Mus musculus [7] = assay: In vivo life span increase in mice after 30 mg/kg (mg/kg)/day (q3d X 3) starting 24 hr of ip administration on;No activity; format: functional, organism-based; design: dose 30 mg/kg; settings: at 30 mg/kg
[8] = target: T1, Dihydrofolate reductase (Mus musculus) (UniProt P00375); assay: Inhibitory tested against Dihydrofolate reductase enzyme from L1210 mouse leukemia cells using [3H]methotrexate as a radioligand; format: cell-based
T1 sequence (whole entry): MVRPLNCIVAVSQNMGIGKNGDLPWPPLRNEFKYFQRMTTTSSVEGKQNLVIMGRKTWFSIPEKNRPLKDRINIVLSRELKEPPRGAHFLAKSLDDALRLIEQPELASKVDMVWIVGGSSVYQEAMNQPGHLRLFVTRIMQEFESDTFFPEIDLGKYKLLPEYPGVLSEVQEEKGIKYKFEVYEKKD

Mus musculus [9] = assay: Compound was tested for life span of weight loss in mice at 1 mg/kg/day; format: functional
Mus musculus [10] = organism: Mus musculus; assay: Compound was tested for life span loss of mean body weight; format: functional
Mus musculus [11] = assay: In vivo life span increase in mice after 120 mg/kg (mg/kg)/day (q3d X 3) starting 24 hr of ip administration on; No activity; format: functional, organism-based; design: dose 120 mg/kg; settings: at 120 mg/kg
[12] = pKa value was determined; format: physicochemical

Chain of Dihydrofolate reductase (Lactobacillus casei) (P00381 whole entry): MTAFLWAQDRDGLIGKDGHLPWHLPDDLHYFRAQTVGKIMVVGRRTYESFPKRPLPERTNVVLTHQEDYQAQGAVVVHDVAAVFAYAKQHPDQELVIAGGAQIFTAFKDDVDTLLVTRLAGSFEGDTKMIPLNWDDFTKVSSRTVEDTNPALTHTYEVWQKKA

In the case of Nc1nc(N)c2nc(CNc3ccc(CNC(CO)CCC(=O)O)cc3)cnc2n1 (stereo not given), the Weight gain (Mus musculus [1]) is reported as 13%, the ID50 [2] is reported as 0.47 µM and the Increase (Mus musculus [3]) is reported as 22%. The Increase (Mus musculus [4]) was “inactive”, the Activity (Mus musculus [5]) was 1 µM and the ILS at 4 mg/kg/day (Mus musculus [6]) was 45%. For the same compound, the Increase (Mus musculus [7]) was “inactive”, the ID50 [8] was 0.024 µM and the ILS at 1 mg/kg/day (Mus musculus [9]) was 27%. For the same compound, the Loss (Mus musculus [10]) was 5% and the Increase (Mus musculus [11]) was “inactive”.
For Nc1nc(N)c2nc(CNc3ccc(C(=O)N[C@@H](CCC(=O)O)C(=O)O)cc3)cnc2n1, the ID50 [2] was 0.027 µM and the ID50 [8] was 0.0022 µM.
Work on CC(=O)NCC(=O)O [ACETURIC ACID] yielded a pKa [12] of 3.6.
For N[C@@H](CCC(=O)O)C(=O)O [GLUTAMIC ACID], the pKa [12] was 3.2.
